{"source": "patent US20030147936A1", "about": "“Prostatic hormonal implants treatment of prostate cancer” (priority 2002, published 2003)", "key": {"[1]": {"test_system": "recurrent prostate cancer", "assay": "Serum acid phosphatase of the same patient on oral DES", "format": "in vivo, human"}, "[2]": {"test_system": "hormone-refractory prostate cancer", "settings": "in vivo; cited from earlier work"}, "[3]": {"test_system": "recurrent poor prognostic prostate cancer", "procedure": "Since this hormonal treatment was rendered at recurrence after radiation therapy, it is termed as secondary hormonal treatment.\nLater it was reduced to 1 mg per day."}, "[4]": {"test_system": "prostate with cancer, prostatic volume greater than 50 cc", "settings": "before interstitial radioactive seed implant; cited from earlier work"}, "estrogen receptor sites": {"biological_target": "estrogen receptor sites (Homo sapiens, UniProt P03372)", "sequence (P03372 whole entry)": "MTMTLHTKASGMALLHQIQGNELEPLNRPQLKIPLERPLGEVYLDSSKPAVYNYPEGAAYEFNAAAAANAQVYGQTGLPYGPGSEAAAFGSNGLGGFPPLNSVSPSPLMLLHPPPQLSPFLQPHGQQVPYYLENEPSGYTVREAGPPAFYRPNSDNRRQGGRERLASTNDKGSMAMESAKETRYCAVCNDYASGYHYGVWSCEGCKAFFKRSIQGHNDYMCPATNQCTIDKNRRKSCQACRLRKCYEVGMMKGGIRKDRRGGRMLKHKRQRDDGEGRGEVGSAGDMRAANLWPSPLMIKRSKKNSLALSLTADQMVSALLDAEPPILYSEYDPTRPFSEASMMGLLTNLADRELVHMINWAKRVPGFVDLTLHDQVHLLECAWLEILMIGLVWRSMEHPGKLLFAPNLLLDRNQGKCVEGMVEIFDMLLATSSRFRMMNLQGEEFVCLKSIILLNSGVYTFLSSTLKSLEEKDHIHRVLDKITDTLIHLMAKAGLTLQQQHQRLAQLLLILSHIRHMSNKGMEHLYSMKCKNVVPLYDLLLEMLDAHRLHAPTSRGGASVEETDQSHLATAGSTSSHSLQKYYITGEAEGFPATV", "settings": "cited from earlier work"}, "rat breast tumor": {"test_system": "rat breast tumor", "assay": "Implantation of iodoestradiol adsorbed sponges to rat breast tumor", "format": "in vivo", "settings": "sponges implanted to rat breast tumor; unpublished data", "excerpt": "In U.S. Pat. No. 4,321,208 (31; Sahadevan V: Preparation of directly iodinated steroid hormones and related compounds, U.S. Pat. No. 4,321,208; 1982) this inventor has described the methods for preparation of iodinated steroid hormones including the estradiol as early as in 1976, the time of filing the patent application."}, "estrogen antiserum": {"test_system": "estrogen antiserum", "settings": "cited from earlier work"}, "[5]": {"settings": "DES 1 mg three times per day by mouth, four years of follow-ups"}, "[6]": {"settings": "June 10, 1993, pretreatment value, before DES was started, table dose 3 mg 3× daily"}, "[7]": {"settings": "September 15, 1993, DES 3 mg 3× daily (table)"}}, "note": "Where two headings read alike, the source gives them in different places.", "data": [{"compound": "CC/C(=C(/CC)c1ccc(O)cc1)c1ccc(O)cc1", "note": "[DES, diethylstilbestrol]", "values": [{"measurement": "acid phosphatase nadir value during treatment with DES", "setting": "[1]; [5]", "value": 0.3, "unit": "international unit"}, {"measurement": "Acid Phosphatase", "setting": "[1]; [6]", "value": 48.0, "unit": "iu"}, {"measurement": "Acid Phosphatase", "setting": "[1]; [7]", "value": 0.3, "unit": "iu"}, {"measurement": "decrease of serum acid phosphatase (FIG. 3)", "setting": "[1]; from pretreatment 48 international units per ml, rapidly", "value": "normal level"}, {"measurement": "serum acid phosphatase level", "setting": "[1]; three months after DES 1 mg three times a day, pretreatment 48.0", "value": "< 0.3 international units per ml"}, {"measurement": "effectiveness in hormone-refractory prostate cancer", "setting": "[2]", "value": "effective"}, {"measurement": "PSA reduced to", "setting": "[3]; 1 mg DES three times a day, patients with serum PSA exceeding over 300 ng per ml", "value": "less than 1 ng per ml"}, {"measurement": "PSA", "setting": "[3]; August 4, 1996, DES 1 mg daily", "value": ">0.1", "unit": "ng/mL"}, {"measurement": "PSA", "setting": "[3]; August 5, 1997, DES 1 mg daily", "value": ">0.1", "unit": "ng/mL"}, {"measurement": "serum PSA nadir value during treatment with DES", "setting": "[3]; [5]", "value": 0.1, "unit": "ng per ml"}, {"measurement": "PSA reduced to", "setting": "[3]; DES oral dose of 1 mg daily, 363 ng per ml before treatment", "value": 0.1, "unit": "ng per ml"}, {"measurement": "PSA", "setting": "[3]; [6]", "value": 363.0, "unit": "ng/mL"}, {"measurement": "PSA", "setting": "[3]; June 13, 1994, DES 3 mg 3× daily (table)", "value": ">0.1", "unit": "ng/mL"}, {"measurement": "PSA", "setting": "[3]; May 3, 1995, DES 3 mg 3× daily (table)", "value": ">0.1", "unit": "ng/mL"}, {"measurement": "PSA", "setting": "[3]; September 7, 1993, DES 3 mg 3× daily (table)", "value": 38.4, "unit": "ng/mL"}, {"measurement": "PSA", "setting": "[3]; [7]", "value": 4.5, "unit": "ng/mL"}, {"measurement": "PSA", "setting": "[3]; September 26, 1994, DES 3 mg 3× daily (table)", "value": ">0.1", "unit": "ng/mL"}, {"measurement": "PSA value, maintained at low nadir", "setting": "[3]; continued DES alone, 1 mg three times a day, later 1 mg per day, maintained for four years, pretreatment 363 ng per ml", "value": "less than 0.1 ng"}, {"measurement": "decrease of serum PSA (FIG. 1)", "setting": "[3]; from pretreatment 363 ng per ml, rapidly", "value": "normal level"}]}, {"compound": "LHRH", "values": [{"measurement": "reduction of the initial prostatic volume", "setting": "[4]", "value": "about 40 per cent"}]}, {"compound": "iodoestradiol", "values": [{"measurement": "binding to estrogen receptor sites", "setting": "estrogen receptor sites", "value": "binds"}, {"measurement": "tumor regression", "setting": "rat breast tumor", "value": "excellent tumor regression"}, {"measurement": "binding to estrogen antiserum", "setting": "estrogen antiserum", "value": "binds"}]}]}
